We go through one compound from patent US11331280B2, “Methods for inhibiting conversion of choline to trimethylamine (TMA)” (The Procter & Gamble Company, priority 2018, dated 2022).

For experiment [1], the system named is human fecal polymicrobial community. Nature of the experiment: Example 11: human fecal polymicrobial incubation with d9-choline, compound screening. It is filed as cell-based. The following applies: TABLE 11, fecal slurry, 50 μM d9-choline chloride, 20 hours, doses 250 μM to 0.238 nM, read-out: TMA Inhibition (IC50, mol/L). On the procedure:
Human fecal polymicrobial incubation with deuterium labeled choline compound screening method, including cell viability assay. All materials were pre-reduced in an anaerobic chamber for 24 hours before using in the experiments and experimental procedures were performed under anaerobic conditions (chamber purged with 85% nitrogen, 5% hydrogen, 10% carbon dioxide).
Human fecal samples were collected from a healthy volunteer with no chronic illnesses, blood borne diseases or active infections. The volunteer had not received antibiotics within two months prior to donation and provided written informed consent. Samples were diluted to make a 20% (w/v) fecal slurry by resuspension of the feces in a media containing 3% (w/v) tryptic soy broth (BBL #211825), 1% (w/v) trehalose (Sigma #T9631), pH 7.3. The fecal slurry was homogenized and filtered by hand using a stomacher bag with an integrated 170 μm membrane. DMSO (5% (w/v)) was added to the filtered slurry and aliquots were stored in cryogenic vials at −80° C. until use. […] After 20 hours, an aliquot of the fecal polymicrobial community was analyzed for viability using PrestoBlue cell viability reagent (Thermo Fisher Scientific, USA) as described below. […] The products were determined by LC/MS/MS and IC50 values were calculated as described previously for detection and analysis of TMA and d9-TMA in EXAMPLE 9. […]

Experiment [2] concerns Proteus mirabilis 29906 (Pm) lysate. Nature of the experiment: Example 10: inhibition of formation of TMA from choline by compounds in Proteus mirabilis lysate. The class given is biochemical. As to conditions: TABLE 10, 50 μM d9-choline chloride, two hours at 37° C., read-out: TMA Inhibition (IC50, mol/L). On the procedure: This example provides an exemplary assay for identifying and characterizing compounds that inhibit the formation of TMA from choline.
Proteus mirabilis 29906 (Pm) strain was grown aerobically overnight in 500 ml of Nutrient Broth media (3 g/L beef extract, 5 g/L Peptone; Difco #234000) at 37° C. with 250 rpm shaking. The biomass was pelleted by centrifugation at 6000×g for 12 minutes at 4° C. The cell pellet was suspended in 240 mL of ice-cold 1× Phosphate Buffered Saline (Ca^2+ and Mg^2+ free). Ninety micrograms of Lysozyme (Sigma #L6876 Lot #SLBG8654V; Sigma-Aldrich Corp., St. Louis, Mo.) was added and incubated with 320 rpm shaking for 30 minutes at 4° C. Lysis was achieved via French press with a 4° C. prechilled 1″ diameter chamber at 1000 psi (high ratio; internal PSI equivalent ˜16000). The lysate was centrifuged at 6,000×g for 12 minutes at 4° C. to pellet extra debris. A protein concentration of the centrifuged lysate supernatant was determined by a BCA Protein Assay Kit (Pierce #23225; Thermo Fisher Scientific Co., Waltham, Mass.) and protein concentration adjusted to 3 mg/ml with 1× Dulbecco's phosphate buffered saline (DPBS). […]
The plates were again agitated on a plate shaker for 1 minute and incubated at 37° C. for two hours. […] The supernatant was removed and analyzed as described below. […]

As for `C[S+](C)(=O)CCO` [(2-hydroxyethyl) dimethylsulfoxonium chloride], the IC50 came to 97.3 nM in experiment [1] and 7.74 nM in experiment [2].
